Columns and labels:
Assay in all cases: relative viability (nuclei count vs DMSO), 5 days (fraction); higher = more cells survive
[1] = compound: C1=CC=C2C(=C1)C=CC(=C2SSC3=C(C=CC4=CC=CC=C43)O)O [IPA-3] + N=C(N)NC(=N)NCCc1ccccc1 [Phenformin] (partner 250 µM)
Method in brief: (§1)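 Lung cancer cell lines were seeded in 1536-well plates and dosed by pin tool the next day, with either a single drug or a fixed anchor-drug dose combined with five library-drug doses (not always all listed) spaced in √10 steps. Five days later, one step fixed the cells and stained their nuclei (final 0.05% Triton X-100, 1% formaldehyde, 1 ug/ml Hoechst), and nuclei were counted on 4× images. Relative viability is the nuclei count in treated wells divided by the count in vehicle wells, and each value is the median of duplicate plates.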

[2] = compound: Cc1ccc(-n2nc(C(C)(C)C)cc2NC(=O)Nc2ccc(OCCN3CCOCC3)c3ccccc23)cc1 [Doramapimod] + C[C@@H](Oc1cc(-c2cnn(C3CCNCC3)c2)cnc1N)c1c(Cl)ccc(F)c1Cl [Crizotinib] (partner 1 µM)
Method in brief: as §1

[3] = compound: Cc1ccc(-n2nc(C(C)(C)C)cc2NC(=O)Nc2ccc(OCCN3CCOCC3)c3ccccc23)cc1 [Doramapimod] + N=C(N)NC(=N)NCCc1ccccc1 [Phenformin] (partner 250 µM)
Method in brief: as §1

[4] = compound: Cn1c(Nc2ccc(C(F)(F)F)cc2)nc2cc(Oc3ccnc(-c4ncc(C(F)(F)F)[nH]4)c3)ccc21 [RAF265] + Cc1cc(Nc2cc(N3CCN(C)CC3)nc(Sc3ccc(NC(=O)C4CC4)cc3)n2)n[nH]1 [Tozasertib] (partner 0.1 µM)
Method in brief: as §1

Cell Line	relative viability ([1]; first compound 0.2 µM)	relative viability ([1]; first compound 0.6325 µM)	relative viability ([1]; first compound 2 µM)	relative viability ([1]; first compound 6.325 µM)	relative viability ([1]; first compound 20 µM)	relative viability ([2]; first compound 0.02 µM)	relative viability ([2]; first compound 0.06325 µM)	relative viability ([2]; first compound 0.2 µM)	relative viability ([2]; first compound 0.6325 µM)	relative viability ([2]; first compound 2 µM)	relative viability ([3]; first compound 0.02 µM)	relative viability ([3]; first compound 0.06325 µM)	relative viability ([3]; first compound 0.2 µM)	relative viability ([3]; first compound 0.6325 µM)	relative viability ([3]; first compound 2 µM)	relative viability ([4]; first compound 0.01 µM)	relative viability ([4]; first compound 0.03162 µM)	relative viability ([4]; first compound 0.1 µM)	relative viability ([4]; first compound 1 µM)	relative viability ([4]; first compound 0.3162 µM)
PC-14	0.614	0.521	0.572	0.497	0.801	0.896	0.913	0.906	0.855	0.853	0.662	0.721	0.809	0.762	0.475	0.629	0.555	0.655	0.542	
NCI-H1650	0.564	0.346	0.424	0.512	0.364	0.969	1.02	1.13	1.04	1.02	0.464	0.419	0.482	0.655	0.233	0.377	0.425	0.473	0.304	0.446
NCI-H727	0.591	0.556	0.641	0.498	0.504	0.973	1.06	0.862	0.643	0.759	0.652	0.498	0.445	0.544	0.576	0.703	0.642	0.641	0.411	0.536
COR-L23	0.532	0.426	0.471	0.431	0.232	0.705	0.573	0.571	0.651	0.667	0.436	0.467	0.398	0.422	0.391	0.212	0.176	0.208	0.161	0.201
ChaGo-K-1	0.614	0.494	0.494	0.494	0.605	1.15	1.16	1.17		1.11	0.476	0.507	0.459	0.534	0.428	0.215	0.246	0.217	0.235	0.243
HOP-62	0.79	0.582	0.679	0.636	0.645	0.888	1.02	1.12	0.597	0.968	0.685	0.706	0.753	0.682	0.646	0.338	0.326	0.406	0.225	0.515
NCI-H1915	0.388	0.36	0.371	0.338	0.389	0.907	0.894	0.915	0.918	0.779	0.362	0.357	0.375	0.348	0.298	0.437	0.428	0.457	0.163	0.278
BEN	0.268	0.291	0.243	0.243	0.388	0.855	0.683	0.85	0.742	0.761	0.29	0.245	0.27	0.242	0.278	0.441	0.575	0.468	0.407	0.554
NCI-H1437	0.41	0.294	0.328	0.394	0.304	0.897	0.943	0.868	1	0.915	0.359	0.271	0.3	0.275	0.273	0.408	0.437	0.427	0.365	0.45
EMC-BAC-2	0.642	0.467	0.541	0.576	0.594	0.716	0.758	0.792	0.771	0.699	0.53	0.606	0.586	0.678	0.503	0.28	0.266	0.209	0.082	0.202
NCI-H647	0.8	0.482	0.48	0.371	0.107	1.1	1.03	0.992	0.96	0.833	0.436	0.593	0.614	0.543	0.494	0.197	0.207	0.269	0.158	0.443
LXF-289	0.536	0.47	0.544	0.514	0.546	0.839	0.91	0.799	0.793	0.757	0.491	0.556	0.472	0.459	0.44	0.217	0.172	0.174	0.108	0.205
LOU-NH91	0.793	0.666	0.721	0.677	0.954	0.729	0.724	0.749	0.796	0.61	0.76	0.671	0.735	0.774	0.417	0.705	0.618	0.78	0.467	0.457
NCI-H23	0.819	0.781	0.855	0.773	0.734	0.685	0.435	0.488	0.539	0.595	0.786	0.781	0.788	0.828	0.656	0.368	0.373	0.334	0.172	0.254
NCI-H1993	0.467	0.515	0.538	0.547	0.514	0.739	0.788	0.907	0.919	0.775	0.512	0.484	0.543	0.542	0.548	0.606	0.57	0.571	0.594	0.593
HCC-827	0.383	0.379	0.396	0.441	0.457	0.95	0.869	0.949	0.841	0.666	0.418	0.416	0.376	0.432	0.286	0.412	0.421	0.445	0.361	

— the supplement of paper PMC10307832
